Reference: ChEMBL document CHEMBL5241120, “Insights into the medicinal chemistry of heterocycles integrated with a pyrazolo[1,5-a]pyrimidine scaffold” (RSC Med Chem, 2022)
Values after ≈ are worked out from the molar mass of the structure shown. Values belong to the compound of their own block, whether it stands above or below them.

How the values were obtained:
[1] = system: MCF7; assay: Cytotoxicity against human MCF7 cells by SRB assay; format: functional, cell-based
[2] = Antioxidant activity assessed as ABTS radical scavenging activity; format: functional
[3] = system: Escherichia coli; assay: Antibacterial activity against Escherichia coli assessed as zone of inhibition; format: functional
[4] = system: Aspergillus niger; assay: Antifungal activity against Aspergillus niger assessed as zone of inhibition; format: functional
[5] = system: Bacillus subtilis; assay: Antibacterial activity against Bacillus subtilis assessed as zone of inhibition; format: functional
[6] = system: Rattus norvegicus; assay: Antiinflammatory activity in rat assessed as inhibition of carrageenan induced paw edema at 50 mg/kg; format: functional; parameters: scale not given: the % may be the effect or the level left
[7] = Inhibition of soybean 15-LOX; parameters: species or system Glycine max
[8] = biological target: T1, Prostaglandin G/H synthase 1 (Ovis aries, UniProt P05979); assay: Inhibition of ovine COX-1
T1 sequence (P05979 whole entry): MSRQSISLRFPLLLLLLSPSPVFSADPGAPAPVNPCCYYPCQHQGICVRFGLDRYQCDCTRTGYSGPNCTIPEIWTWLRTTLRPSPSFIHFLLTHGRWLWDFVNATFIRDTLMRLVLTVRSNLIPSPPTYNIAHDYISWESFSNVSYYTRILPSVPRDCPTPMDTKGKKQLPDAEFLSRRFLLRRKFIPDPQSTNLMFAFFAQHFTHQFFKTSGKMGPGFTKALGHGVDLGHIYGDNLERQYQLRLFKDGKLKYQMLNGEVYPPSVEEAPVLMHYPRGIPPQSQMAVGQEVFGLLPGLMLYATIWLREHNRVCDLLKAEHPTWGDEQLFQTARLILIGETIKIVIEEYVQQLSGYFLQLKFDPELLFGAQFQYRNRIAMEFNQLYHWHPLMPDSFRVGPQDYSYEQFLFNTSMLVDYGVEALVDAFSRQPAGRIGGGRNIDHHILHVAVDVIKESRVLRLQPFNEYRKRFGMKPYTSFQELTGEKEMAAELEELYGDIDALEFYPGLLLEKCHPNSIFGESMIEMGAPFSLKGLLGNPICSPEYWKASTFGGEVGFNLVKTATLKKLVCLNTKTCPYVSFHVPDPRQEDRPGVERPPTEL

[9] = system: Fusarium verticillioides; assay: Antifungal activity against Fusarium moniliforme by dry weight method; format: functional
[10] = system: Aspergillus niger; assay: Antifungal activity against Aspergillus niger by dry weight method; format: functional
[11] = system: Staphylococcus aureus; assay: Antibacterial activity against Staphylococcus aureus assessed as zone of inhibition; format: functional
[12] = system: Aspergillus flavus; assay: Antifungal activity against Aspergillus flavus by dry weight method; format: functional; parameters: unit not given beside the values
[13] = system: Staphylococcus aureus; assay: Antibacterial activity against Staphylococcus aureus; format: functional
[14] = system: Bacillus subtilis; assay: Antibacterial activity against Bacillus subtilis; format: functional
[15] = system: Escherichia coli; assay: Antibacterial activity against Escherichia coli; format: functional
[16] = system: Pseudomonas aeruginosa; assay: Antibacterial activity against Pseudomonas aeruginosa; format: functional
[17] = system: Pseudomonas aeruginosa; assay: Antibacterial activity against Pseudomonas aeruginosa assessed as zone of inhibition; format: functional
[18] = system: Rattus norvegicus; assay: Analgesic activity in Sprague-Dawley rat at 15 mg/kg after 2 hrs by hot plate test; format: functional
[19] = system: Candida albicans; assay: Antifungal activity against Candida albicans assessed as zone of inhibition; format: functional
[20] = system: MCF7; assay: Cytotoxicity against human MCF7 cells by MTT assay; format: functional, cell-based
[21] = system: HepG2; assay: Cytotoxicity against human HepG2 cells by MTT assay; format: functional, cell-based
[22] = system: CHO-K1; assay: Cytotoxicity against CHO-K1 cells by MTT assay; format: toxicity, cell-based, Cricetulus griseus; parameters: concentration or dose not given beside the values; settings: chinese hamster

SMILES: CCOP(=O)(OCC)C1C(C(=O)c2ccccc2O)=CN=C2CC(O)=NN21 (stereo not given)
IC50 [1]: 21.9 µg/mL

SMILES: Cc1c(C)c2c(c(C)c1O)CCC(C)(C(=O)O)O2 (stereo not given)
Activity [2]: 1 µM

SMILES: Cc1nc2c(c(C)nc3c(C#N)cnn32)c(Cl)c1CCCl
inhibition zone (IZ) [3]: 15.3 mm
inhibition zone (IZ) [4]: 17.2 mm
inhibition zone (IZ) [5]: 15.1 mm

IC50 [7]: 5.6 µM
IC50 [8]: 8.5 µM
SMILES: COc1ccnc(Nc2nn3c(C)cc(C)nc3c2C#N)c1
Activity [6]: 46%

SMILES: CSc1nn2c(-c3ccccc3)c(C#N)c(N)nc2c1-c1nc2ccccc2n1C
Activity [9]: 0.19
Activity [10]: 0.51
inhibition zone (IZ) [11]: 9 mm
Activity [12]: 0.36

MIC [13]: 62.5 µg/mL (≈ 141 µM)
MIC [14]: 31.2 µg/mL (≈ 70.3 µM)
MIC [15]: 15.6 µg/mL (≈ 35.1 µM)
MIC [16]: 62.5 µg/mL (≈ 141 µM)
SMILES: CN(C)[C@@H]1C(O)=C(C(N)=O)C(=O)[C@@]2(O)C(O)=C3C(=O)c4c(O)cccc4[C@@](C)(O)[C@H]3C[C@@H]12 [TETRACYCLINE]
inhibition zone (IZ) [3]: 23 mm
inhibition zone (IZ) [11]: 25 mm
inhibition zone (IZ) [17]: 20 mm
inhibition zone (IZ) [5]: 25 mm

SMILES: CSc1nn2c(C)cc(C)nc2c1-c1nc2ccccc2n1C
Activity [9]: 0.11
inhibition zone (IZ) [3]: 9 mm
Activity [10]: 0.27
Activity [12]: 0.3

SMILES: COc1ccc(Nc2nn3c(N)c(C#N)c(-c4cccc(C)c4)nc3c2C(=O)Nc2ccc(Cl)cc2)cc1
inhibition zone (IZ) [4]: 15 mm

SMILES: O=C(C1=CN=C2CC(O)=NN2C1P(=O)(OCCCl)OCCCl)c1ccccc1O (stereo not given)
IC50 [1]: 39.7 µg/mL

SMILES: Cc1ccc(N/N=C2\C(=O)n3nc(C)cc3N=C2C(F)(F)F)cc1
Activity [18]: 121.1%

SMILES: C[C@@H]1C[C@@H]([C@H](O)CC2CC(=O)NC(=O)C2)C(=O)[C@@H](C)C1 [CYCLOHEXIMIDE]
inhibition zone (IZ) [19]: 32 mm

SMILES: CC1=Nc2cc(C)nn2C(=O)/C1=N\Nc1ccc(C)cc1
Activity [18]: 96.7%

SMILES: CSc1nn2c(-c3cccs3)c(C#N)c(N)nc2c1-c1nc2ccccc2n1C
Activity [9]: 0.28
Activity [10]: 0.56
Activity [12]: 0.38

SMILES: COc1ccc(-c2ccnc3c(C(N)=O)c(Nc4ccccc4)nn23)cc1
IC50 [20]: 63.4 µM
IC50 [21]: 79.8 µM
IC50 [1]: 63.1 µM
inhibition zone (IZ) [17]: 9 mm

SMILES: COc1ccc(Nc2nn3c(N)c(C#N)c(-c4ccc(C)cc4)nc3c2C(=O)Nc2ccc(Cl)cc2)cc1
inhibition zone (IZ) [4]: 15 mm
inhibition zone (IZ) [19]: 18 mm

SMILES: C[C@@H]1[C@H](O)[C@@H](C)/C=C/C=C/C=C/C=C/C=C/C=C/C=C/[C@H](O[C@@H]2O[C@H](C)[C@@H](O)[C@H](N)[C@@H]2O)C[C@@H]2O[C@](O)(C[C@@H](O)C[C@@H](O)[C@H](O)CC[C@@H](O)C[C@@H](O)CC(=O)O[C@H]1C)C[C@H](O)[C@H]2C(=O)O [AMPHOTERICIN B]
inhibition zone (IZ) [4]: 23.3 mm

SMILES: Cc1cc(-n2ncc(C#N)c2N)n2ncc(C#N)c2n1
inhibition zone (IZ) [3]: 14.2 mm
inhibition zone (IZ) [19]: 17.1 mm
inhibition zone (IZ) [5]: 16.1 mm

SMILES: Cc1c(NC(=O)c2cnn3cc(-c4ccccc4)cnc23)c(=O)n(-c2ccccc2)n1C
Activity [22]: 97.1%

SMILES: CSc1nn2c(C)cc(=O)[nH]c2c1-c1nc2ccccc2n1C
Activity [9]: 0.12
Activity [10]: 0.26
Activity [12]: 0.16

IC50 [7]: 14.2 µM
IC50 [8]: 9.1 µM
SMILES: COc1ccnc(Nc2n[nH]c(N)c2C#N)c1

IC50 [7]: 8.4 µM
IC50 [8]: 7.9 µM
SMILES: CCOc1cc(C)nc2c(C#N)c(Nc3cc(OC)ccn3)nn12
Activity [6]: 46%

IC50 [7]: 8.2 µM
IC50 [8]: 8.5 µM
SMILES: CCOc1cc(N)n2nc(Nc3cc(OC)ccn3)c(C#N)c2n1
Activity [6]: 46%

SMILES: COC(=O)c1cnc2c(C(=O)Nc3c(C)n(C)n(-c4ccccc4)c3=O)cnn2c1C
Activity [22]: 49.24%
